# pIC50: −log10 of the molar value. Activity calls are given as the source filed them.
# Assays:
# [1] = target: Mothers against decapentaplegic homolog 3 (Homo sapiens, UniProt P84022); experiment: blockers of Smad3 complex formation in lysate – cell lysate, secondary confirmation, chemiluminescent ELISA, HEK293 lysate, dose response (AID 1058); format: functional
# [2] = target: Scavenger receptor class B member 1 (Mus musculus, UniProt Q61009); experiment: mouse SR-BI DiI-HDL uptake blockers – ldlA[mSR-BI] cells, fluorescence, cherry pick, dose response (AID 493194); format: functional, cell-based;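 also: cellular uptake of fluorescent DiI-labeled HDL measured as cell fluorescence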
# [3] = target: Wee1-like protein kinase (Homo sapiens, UniProt P30291); experiment: Dose Response Cell-based Assay for Inhibitors of Wee1 Degradation. [Related pubchem assays: 1410, 1321 ]; format: functional
# [4] = Luminescence Cell-Based Dose Confirmation HTS to Identify Inhibitors of Platelet Dense Granule Release. [Related pubchem assays: 1663 (Primary HTS), 1678 (Summary of Project)]; format: functional
# [5] = target: Sphingosine 1-phosphate receptor 2 (Homo sapiens, UniProt O95136); experiment: Dose Response Cell Based Assay for Antagonists of the S1P2 Receptor. [Related pubchem assays: 856, 736 ]; format: functional
# Sphingosine 1-phosphate receptor 2, sequence (O95136 whole entry): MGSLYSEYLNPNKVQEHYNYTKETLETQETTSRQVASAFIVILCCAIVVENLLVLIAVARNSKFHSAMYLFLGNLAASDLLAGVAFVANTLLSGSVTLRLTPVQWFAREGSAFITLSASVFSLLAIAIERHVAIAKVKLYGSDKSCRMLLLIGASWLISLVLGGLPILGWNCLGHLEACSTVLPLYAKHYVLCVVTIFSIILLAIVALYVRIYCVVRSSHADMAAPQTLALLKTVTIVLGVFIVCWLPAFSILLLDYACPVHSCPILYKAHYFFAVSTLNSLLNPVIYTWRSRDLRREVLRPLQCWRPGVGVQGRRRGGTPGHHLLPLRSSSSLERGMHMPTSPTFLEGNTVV
# [6] = target: Sphingosine 1-phosphate receptor 1 (Homo sapiens, UniProt P21453); format: functional;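 also: Tango beta-arrestin reporter U2OS cells stimulated with S1P near its EC80; inhibitor potency meaning antagonism of receptor activation by the natural agonist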
# Sphingosine 1-phosphate receptor 1, sequence (P21453 whole entry): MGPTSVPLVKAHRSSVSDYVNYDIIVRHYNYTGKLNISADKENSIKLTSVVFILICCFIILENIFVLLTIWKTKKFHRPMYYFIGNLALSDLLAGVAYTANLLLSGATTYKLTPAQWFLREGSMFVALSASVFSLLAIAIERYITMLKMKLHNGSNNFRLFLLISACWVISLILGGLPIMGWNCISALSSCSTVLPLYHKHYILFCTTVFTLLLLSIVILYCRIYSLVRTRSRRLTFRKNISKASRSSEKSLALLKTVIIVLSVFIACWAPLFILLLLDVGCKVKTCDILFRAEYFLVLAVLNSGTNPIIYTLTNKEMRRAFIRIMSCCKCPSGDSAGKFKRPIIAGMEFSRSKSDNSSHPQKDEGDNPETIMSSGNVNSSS
# [7] = Luminescence-based dose response cell-based high throughput screening assay for cytotoxic compounds using the IEC-6 intestinal epithelial cell line. [Related pubchem assays: 1858 (Summary AID.), 1825 (Counterscreen.), 1907 (Confirmation screen.)]; format: functional
# [8] = system: HeLa; experiment: Cytotoxicity counterscreen assay for transcriptional activators of heat shock protein 70 (Hsp70). [Related pubchem assays: 1203, 1252 ]; format: functional; details: Homo sapiens;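 also: cells exposed to compound for 16 hours before readout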
# [9] = target: T1, Kappa-type opioid receptor (Homo sapiens, UniProt P41145); format: functional
# T1 sequence (P41145 whole entry): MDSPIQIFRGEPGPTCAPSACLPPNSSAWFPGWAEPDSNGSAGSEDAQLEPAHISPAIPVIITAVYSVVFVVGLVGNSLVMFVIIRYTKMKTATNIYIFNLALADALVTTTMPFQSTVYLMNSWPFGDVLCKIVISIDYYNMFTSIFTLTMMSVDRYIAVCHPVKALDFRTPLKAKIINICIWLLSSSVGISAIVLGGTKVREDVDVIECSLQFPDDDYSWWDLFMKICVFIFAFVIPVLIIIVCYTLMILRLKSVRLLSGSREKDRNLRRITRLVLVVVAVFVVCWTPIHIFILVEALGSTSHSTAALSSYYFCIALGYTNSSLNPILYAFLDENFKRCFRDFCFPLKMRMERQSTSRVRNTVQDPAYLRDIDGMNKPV
# [10] = target: Luciferin 4-monooxygenase (Photinus pyralis, UniProt P08659); experiment: inhibition of purified Photinus pyralis luciferase – biochemical, luminescence, dose response (AID 1891)
# [11] = target: T2, Beta-galactosidase (Escherichia coli, UniProt Q8VNN2); experiment: PubChem AID 485352; format: functional
# T2 sequence (Q8VNN2 whole entry): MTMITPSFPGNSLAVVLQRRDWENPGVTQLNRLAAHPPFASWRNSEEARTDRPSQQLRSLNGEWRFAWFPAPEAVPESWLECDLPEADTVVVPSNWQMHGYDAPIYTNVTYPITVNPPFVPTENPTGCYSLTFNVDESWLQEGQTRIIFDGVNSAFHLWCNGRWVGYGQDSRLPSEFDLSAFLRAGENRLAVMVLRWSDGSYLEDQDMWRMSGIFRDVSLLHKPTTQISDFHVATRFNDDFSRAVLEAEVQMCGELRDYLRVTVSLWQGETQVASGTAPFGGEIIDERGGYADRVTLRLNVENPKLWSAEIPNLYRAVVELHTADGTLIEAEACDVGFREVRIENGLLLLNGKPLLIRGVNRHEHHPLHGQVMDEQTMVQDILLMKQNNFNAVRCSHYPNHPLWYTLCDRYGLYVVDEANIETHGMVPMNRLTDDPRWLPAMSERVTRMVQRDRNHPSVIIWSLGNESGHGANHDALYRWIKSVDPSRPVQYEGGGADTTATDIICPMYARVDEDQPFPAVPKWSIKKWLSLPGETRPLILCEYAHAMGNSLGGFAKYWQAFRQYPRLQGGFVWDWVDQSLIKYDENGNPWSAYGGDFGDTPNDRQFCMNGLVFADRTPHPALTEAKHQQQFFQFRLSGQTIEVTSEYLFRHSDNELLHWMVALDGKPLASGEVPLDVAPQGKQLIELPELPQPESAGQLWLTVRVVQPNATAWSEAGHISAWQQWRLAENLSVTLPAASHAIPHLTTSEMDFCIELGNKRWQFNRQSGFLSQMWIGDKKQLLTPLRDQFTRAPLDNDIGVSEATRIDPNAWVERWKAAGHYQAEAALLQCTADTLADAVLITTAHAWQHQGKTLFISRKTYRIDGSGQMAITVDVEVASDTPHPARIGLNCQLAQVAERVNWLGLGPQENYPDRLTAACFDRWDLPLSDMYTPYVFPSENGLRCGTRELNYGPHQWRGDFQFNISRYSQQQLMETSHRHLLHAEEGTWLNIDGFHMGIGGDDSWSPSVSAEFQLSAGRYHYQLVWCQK
# [12] = target: T1, Kappa-type opioid receptor; format: functional; remark: listed apart in the source
# [13] = target: T3, Type-1 angiotensin II receptor (Homo sapiens, UniProt P30556); experiment: antagonism of angiotensin II type 1 receptor – cell-based, uHTS hits, selectivity assay for APJ receptor antagonist project, dose response (AID 463214); format: functional;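 also: antagonist potency against angiotensin II stimulated AT1 response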
# T3 sequence (P30556 whole entry): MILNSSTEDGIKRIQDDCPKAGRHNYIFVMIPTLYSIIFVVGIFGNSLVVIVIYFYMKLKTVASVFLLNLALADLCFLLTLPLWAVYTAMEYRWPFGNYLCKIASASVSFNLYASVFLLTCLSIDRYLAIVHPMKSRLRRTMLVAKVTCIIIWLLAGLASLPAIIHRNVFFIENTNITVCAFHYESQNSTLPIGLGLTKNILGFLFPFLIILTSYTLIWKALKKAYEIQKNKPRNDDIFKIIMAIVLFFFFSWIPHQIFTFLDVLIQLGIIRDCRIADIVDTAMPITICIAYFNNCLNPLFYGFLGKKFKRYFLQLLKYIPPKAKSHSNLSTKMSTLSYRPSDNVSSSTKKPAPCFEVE
# [14] = target: G2/mitotic-specific cyclin-B1 (Homo sapiens, UniProt P14635); experiment: Counterscreen assay for inhibitors of Wee1 degradation: dose response cell-based assay to identify inhibitors of cyclin B degradation. [Related pubchem assays: 1410, 1321 ]; format: functional
# [15] = system: INS1; experiment: INS-1E survival protection against cytokine death – cell-based, luminescence, retest, dose response (AID 449756); format: functional; details: Rattus norvegicus;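 also: cell death triggered by IL-1 beta plus TNF-alpha plus IFN-gamma mixture; protective hits raise ATP signal compared with cytokine alone wells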
# [16] = HEK-293T viability loss after treatment – luminescence, T-cell screen hits, cytotoxicity control for TCR NF-kB inhibitor project, dose response (AID 489026); format: functional, cell-based;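 also: cells exposed to compound about 14 hours before the viability readout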
# [17] = target: T2, Beta-galactosidase; format: functional
# [18] = target: Sphingosine 1-phosphate receptor 4 (Homo sapiens, UniProt O95977); experiment: Fluorescence dose response cell-based high throughput screening assay for antagonists of the Sphingosine 1-Phosphate Receptor 4 (S1P4). [Related pubchem assays: 1524 (Confirmation in triplicates.), 1510 (Primary screen.)]; format: functional
# [19] = target: E3 ubiquitin-protein ligase Mdm2 (Homo sapiens, UniProt Q00987); experiment: MDM2-luc reporter signal enhancers, multi-concentration potency testing, MDM2 ubiquitin-protein ligase inhibitor program, whole-cell format, luminescence detection, 384-well microplate (AID 1394); format: functional;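 also: MDM2 E3 inhibitors raise luminescence so EC50 is for signal enhancement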
# [20] = microbe, parasite or virus in culture; format: functional; details: Mycobacterium tuberculosis
# [21] = target: T4, SUMO-activating enzyme (Homo sapiens, UniProt Q9UBT2); experiment: blockers of UBC9-mediated SUMO conjugation – biochemical, AlphaScreen, SUMOylation inhibitor project, confirmation (AID 2018); format: functional
# T4 sequence (Q9UBE0 whole entry): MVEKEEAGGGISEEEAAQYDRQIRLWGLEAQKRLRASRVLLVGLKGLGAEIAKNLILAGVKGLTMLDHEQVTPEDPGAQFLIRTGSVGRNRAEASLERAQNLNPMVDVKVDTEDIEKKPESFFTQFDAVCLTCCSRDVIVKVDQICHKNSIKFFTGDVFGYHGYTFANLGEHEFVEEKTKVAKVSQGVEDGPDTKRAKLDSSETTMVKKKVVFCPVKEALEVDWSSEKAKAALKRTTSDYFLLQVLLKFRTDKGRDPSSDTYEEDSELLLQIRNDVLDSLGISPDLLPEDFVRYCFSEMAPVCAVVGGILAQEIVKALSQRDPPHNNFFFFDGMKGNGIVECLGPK
# T4 sequence (Q9UBT2 whole entry): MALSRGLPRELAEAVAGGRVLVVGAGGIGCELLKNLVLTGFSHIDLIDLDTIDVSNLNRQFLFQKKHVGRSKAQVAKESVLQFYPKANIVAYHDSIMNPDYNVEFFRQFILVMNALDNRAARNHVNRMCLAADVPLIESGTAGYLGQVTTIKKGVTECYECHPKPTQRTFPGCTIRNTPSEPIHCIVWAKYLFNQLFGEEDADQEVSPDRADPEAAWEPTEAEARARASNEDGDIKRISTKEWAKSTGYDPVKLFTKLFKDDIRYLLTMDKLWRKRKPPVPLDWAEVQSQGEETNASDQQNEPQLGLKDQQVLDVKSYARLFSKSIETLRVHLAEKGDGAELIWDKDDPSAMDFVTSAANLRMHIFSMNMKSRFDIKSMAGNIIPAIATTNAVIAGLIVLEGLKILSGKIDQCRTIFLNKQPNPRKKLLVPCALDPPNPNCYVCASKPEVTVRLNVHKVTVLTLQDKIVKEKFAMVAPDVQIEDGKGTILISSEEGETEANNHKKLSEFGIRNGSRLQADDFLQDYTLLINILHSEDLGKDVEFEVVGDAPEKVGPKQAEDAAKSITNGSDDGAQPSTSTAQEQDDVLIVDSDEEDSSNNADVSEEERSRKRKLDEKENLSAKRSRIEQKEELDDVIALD
# [22] = target: T4, SUMO-activating enzyme; experiment: blockers of SAE1/SAE2–UBC9 SUMO transfer – biochemical, HTRF, uHTS, primary screen (AID 2006); format: protein-complex assay
# [23] = target: Guanyl-specific ribonuclease T1 (Aspergillus oryzae (strain ATCC 42149 / RIB 40), UniProt P00651); experiment: inhibition of ribonuclease T1 activity – biochemical, fluorescence polarization, 1536-well, counter-screen for TPT1 inhibitor project, dose response (AID 2167)
# [24] = target: Likely tRNA 2'-phosphotransferase (Candida albicans (strain SC5314 / ATCC MYA-2876) (Yeast), UniProt Q5A7N4); experiment: inhibition of Candida TPT1 enzyme activity – biochemical, fluorescence polarization, dose response (AID 2160)
# Likely tRNA 2'-phosphotransferase, sequence (Q5A7N4 whole entry): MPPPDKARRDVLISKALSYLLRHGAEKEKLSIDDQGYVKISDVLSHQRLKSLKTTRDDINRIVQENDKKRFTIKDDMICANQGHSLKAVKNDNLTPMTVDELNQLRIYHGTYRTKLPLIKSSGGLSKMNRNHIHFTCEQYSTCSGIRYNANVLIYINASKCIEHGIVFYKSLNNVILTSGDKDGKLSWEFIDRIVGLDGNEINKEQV
# [25] = ADP-Glo luciferase signal interference – biochemical, luminescence, cherry-picked samples, set 2, artefact control for CDK5 inhibitor project, dose response (AID 504546); format: functional, cell-based
# [26] = target: Lysosomal acid glucosylceramidase (Homo sapiens, UniProt P04062); experiment: Dose response cell-based high throughput screening assay to identify enhancers of beta-glucosidase activity. [Related pubchem assays: 784 ]; format: functional
# Lysosomal acid glucosylceramidase, sequence (P04062 whole entry): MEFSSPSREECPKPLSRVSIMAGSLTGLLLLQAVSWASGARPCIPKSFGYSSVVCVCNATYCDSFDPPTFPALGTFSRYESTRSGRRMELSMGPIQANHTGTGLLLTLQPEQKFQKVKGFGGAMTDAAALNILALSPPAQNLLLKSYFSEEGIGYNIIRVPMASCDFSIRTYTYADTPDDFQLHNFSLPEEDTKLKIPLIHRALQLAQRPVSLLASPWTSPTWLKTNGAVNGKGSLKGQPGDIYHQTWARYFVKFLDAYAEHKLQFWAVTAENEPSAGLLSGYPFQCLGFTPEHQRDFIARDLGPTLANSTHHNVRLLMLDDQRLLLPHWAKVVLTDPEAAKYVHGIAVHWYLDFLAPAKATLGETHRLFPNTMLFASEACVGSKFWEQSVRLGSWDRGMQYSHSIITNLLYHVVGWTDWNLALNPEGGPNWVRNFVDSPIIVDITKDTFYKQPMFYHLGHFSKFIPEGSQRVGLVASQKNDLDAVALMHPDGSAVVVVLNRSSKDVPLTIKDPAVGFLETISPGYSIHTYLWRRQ
# [27] = target: T5, Interleukin-8 (Homo sapiens, UniProt P10145); experiment: SAR analysis of tumor necrosis factor alpha (TNF-alpha) induced IL-8 secretion in MCF-7/NOD1 cells. [Related pubchem assays (depositor defined):AID1575, AID2250, AID2260]; format: functional, cell-based
# T5 sequence (P10145 whole entry): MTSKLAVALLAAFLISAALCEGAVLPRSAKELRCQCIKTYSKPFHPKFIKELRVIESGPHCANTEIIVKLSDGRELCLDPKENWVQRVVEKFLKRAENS
# [28] = target: Protein Rev (Human immunodeficiency virus type 1 group M subtype B (isolate WMJ22)(HIV-1), UniProt P05866); experiment: inhibitors of Rev protein–RRE RNA complex – biochemical, protein-RNA interaction, dose response (AID 842); set-up: species or system Human immunodeficiency virus 1
# Protein Rev, sequence (P05866 whole entry, the tested form may be a part): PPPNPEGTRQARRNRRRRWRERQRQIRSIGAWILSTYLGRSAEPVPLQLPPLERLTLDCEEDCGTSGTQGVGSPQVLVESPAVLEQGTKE
# [29] = target: Nucleotide-binding oligomerization domain-containing protein 2 (Homo sapiens, UniProt Q9HC29); experiment: PubChem AID 2334; format: functional
# [30] = target: T6, Nucleotide-binding oligomerization domain-containing protein 1 (Homo sapiens, UniProt Q9Y239); experiment: blockers of NOD1 pathway activity – revised, SAR follow-up (AID 2333); format: functional
# T6 sequence (Q9Y239 whole entry): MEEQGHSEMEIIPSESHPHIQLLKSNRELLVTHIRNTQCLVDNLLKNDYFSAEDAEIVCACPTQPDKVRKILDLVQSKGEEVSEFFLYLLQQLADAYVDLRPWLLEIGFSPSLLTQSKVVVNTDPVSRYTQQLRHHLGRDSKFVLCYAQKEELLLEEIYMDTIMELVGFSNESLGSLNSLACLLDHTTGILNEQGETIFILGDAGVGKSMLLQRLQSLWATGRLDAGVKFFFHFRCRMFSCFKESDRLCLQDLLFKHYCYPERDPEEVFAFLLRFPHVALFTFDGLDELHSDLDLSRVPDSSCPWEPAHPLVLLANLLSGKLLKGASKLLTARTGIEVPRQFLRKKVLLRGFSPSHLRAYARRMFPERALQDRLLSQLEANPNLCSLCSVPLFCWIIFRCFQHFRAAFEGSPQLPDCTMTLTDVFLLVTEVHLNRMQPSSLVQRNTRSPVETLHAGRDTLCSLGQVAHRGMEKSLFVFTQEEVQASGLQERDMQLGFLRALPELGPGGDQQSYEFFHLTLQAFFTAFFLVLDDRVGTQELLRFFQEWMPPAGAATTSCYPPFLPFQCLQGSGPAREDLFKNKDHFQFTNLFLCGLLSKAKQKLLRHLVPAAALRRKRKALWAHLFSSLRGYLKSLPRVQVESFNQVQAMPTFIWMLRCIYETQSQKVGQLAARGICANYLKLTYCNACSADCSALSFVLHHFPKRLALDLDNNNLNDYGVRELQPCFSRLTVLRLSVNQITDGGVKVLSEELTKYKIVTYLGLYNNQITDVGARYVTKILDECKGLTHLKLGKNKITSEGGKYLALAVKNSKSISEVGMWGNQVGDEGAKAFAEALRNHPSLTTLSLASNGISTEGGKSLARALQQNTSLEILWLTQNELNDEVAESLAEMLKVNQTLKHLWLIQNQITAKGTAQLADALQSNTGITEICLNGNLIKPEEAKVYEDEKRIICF
# [31] = target: Tumor necrosis factor (Homo sapiens, UniProt P01375); experiment: analog potency on TNFa NF-kB signaling – cell-based, revised, SAR follow-up (AID 2337); format: functional
# [32] = system: HEK293; experiment: cells; details: Homo sapiens;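 also: cells exposed to compound for 14 hours overnight before viability readout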
# [33] = system: Staphylococcus aureus; experiment: Inhibitors of Bacterial Quorum Sensing Structure Activity Relationship (SAR) Analysis: Dose Response Assay. [Related pubchem assays: 700, 527 ]; format: functional, organism-based
# [34] = viability loss in CEM21 cells – cell-based, CellTiter-Glo luminescence, cherry-picked, cytotoxicity control for viral fusion inhibitor project, dose response (AID 652042); format: functional;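 also: potency for signal decrease meaning cytotoxicity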
# [35] = target: Cytochrome P450 2C19 (Homo sapiens, UniProt P33261); experiment: qHTS Assay for Inhibitors and Substrates of Cytochrome P450 2C19. [Related pubchem assays: 410 ]; format: ADME; details: read-out: Potency
# [36] = blockers of HIV-1 ZM109 envelope-driven cell-cell fusion – HeLa effector, CEM target cells, luciferase, cherry-pick, dose response (AID 652058); format: functional, cell-based;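 also: luciferase signal from HIV-1 Env mediated cell-cell fusion of effector and target cells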
# [37] = target: Cytochrome P450 2C9 (Homo sapiens, UniProt P11712); details: Potency
# Cytochrome P450 2C9, sequence (P11712 whole entry, the tested form may be a part): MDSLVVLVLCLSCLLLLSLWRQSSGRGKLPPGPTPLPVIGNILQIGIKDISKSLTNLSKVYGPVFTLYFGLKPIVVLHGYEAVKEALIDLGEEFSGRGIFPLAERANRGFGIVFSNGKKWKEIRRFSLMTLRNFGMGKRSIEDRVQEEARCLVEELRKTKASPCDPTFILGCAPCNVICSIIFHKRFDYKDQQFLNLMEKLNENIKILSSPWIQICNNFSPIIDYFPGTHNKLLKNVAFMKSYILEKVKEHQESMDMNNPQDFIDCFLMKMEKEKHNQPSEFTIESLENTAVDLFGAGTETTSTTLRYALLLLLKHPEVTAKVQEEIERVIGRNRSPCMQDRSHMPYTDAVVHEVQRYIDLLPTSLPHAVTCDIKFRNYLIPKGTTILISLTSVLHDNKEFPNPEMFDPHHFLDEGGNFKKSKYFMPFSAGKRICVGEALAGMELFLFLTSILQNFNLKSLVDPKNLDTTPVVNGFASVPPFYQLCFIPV
# [38] = blockers of HIV-1 envelope-mediated cell-cell fusion – cherry-pick, dose response (AID 652057); format: functional, cell-based
# [39] = off-target signal loss in HeLa-CEM21 co-culture – HeLa F-luc CTL cells, cherry-picked, counter-screen for HIV-1 Env fusion inhibitor project, dose response (AID 652040); format: functional, cell-based;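 also: potency for signal decrease marking cytotoxic or nonspecific inhibition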
# [40] = HIV-1 AD8 envelope cell-cell fusion blockers – cherry-pick, dose response (AID 652062); format: functional, cell-based;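 also: luciferase signal from cell-cell fusion driven by HIV-1 clade B AD8 Env; potency is for inhibitors of fusion seen as a drop in luminescence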
# Mothers against decapentaplegic homolog 3, sequence (P84022 whole entry): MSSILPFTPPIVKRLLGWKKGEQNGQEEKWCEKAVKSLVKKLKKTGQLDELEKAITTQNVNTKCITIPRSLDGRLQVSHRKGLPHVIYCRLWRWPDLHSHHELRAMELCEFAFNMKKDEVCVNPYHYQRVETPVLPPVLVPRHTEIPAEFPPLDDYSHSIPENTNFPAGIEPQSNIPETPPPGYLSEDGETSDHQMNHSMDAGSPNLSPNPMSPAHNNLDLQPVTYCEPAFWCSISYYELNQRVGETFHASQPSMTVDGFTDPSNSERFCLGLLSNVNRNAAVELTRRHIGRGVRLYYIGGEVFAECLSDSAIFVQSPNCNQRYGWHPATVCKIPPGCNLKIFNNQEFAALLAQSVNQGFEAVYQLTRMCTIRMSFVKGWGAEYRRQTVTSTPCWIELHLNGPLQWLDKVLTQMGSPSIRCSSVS
compound,measurement,setting,value
COc1ccc(C(c2cc3c(cc2O)OCO3)N2CCOCC2)cc1 (stereo unspecified),IC50,[1],6.51 µM (not active)
CC(=O)c1c(C(C)=O)c(C)n(-c2ccc(C)c(NC(=O)c3ccccc3Cl)c2)c1C,AC50,[2],0.043 µM (active)
COc1ccc(NC(=O)/C(Cl)=C(/Cl)[S+]([O-])Cc2ccc(C)cc2)cn1 (stereo unspecified),EC50,[3],> 49.7 µM (not active)
same,EC50,[4],5.74 µM (active)
same,IC50,[5],0.967 µM (active)
same,IC50,[6],4.46 µM (active)
same,IC50,[7],0.879 µM (active)
same,CC50,[8],1.12 µM (active)
same,IC50,[9],3.76 µM (active)
same,EC50,[10],> 112 µM (not active)
same,EC50,[11],> 40 µM (inactive)
same,pIC50,[12],5.33
same,IC50,[13],2.26 µM (active)
same,EC50,[14],> 49.7 µM (not active)
same,AC50,[15],0.855 µM (active)
same,IC50,[16],29.8 µM (inactive)
same,EC50,[17],> 31.5 µM (inactive)
same,IC50,[18],0.396 µM (active)
same,EC50,[19],0.96 µM (active)
same,CC50,[20],2.13 µM (active)
COc1cc(/C=C2\SC(=O)N(CC(=O)Nc3ccccc3F)C2=O)cc(Cl)c1O,IC50,[21],22.1 µM (active)
same,IC50,[22],15.6 µM (active)
same,IC50,[23],0.238 µM (active)
same,IC50,[24],0.275 µM (active)
COc1cccc(C(=O)O/N=C(\N)c2ccccn2)c1,EC50,[4],3.65 µM (active)
same,AC50,[25],26.7 µM (active)
CN(CC(=O)Nc1ccc(F)c(F)c1)S(=O)(=O)c1cccc2nsnc12,EC50,[26],> 50 µM (not active)
Nc1nc2ccccc2n1S(=O)(=O)c1ccc(Cl)cc1,IC50,[27],> 5 µM (inactive)
COC(=O)c1c(C(=O)OC)n(CCCN)c2ccc(C)cc12,IC50,[28],> 79.4 µM (not active)
CN(C)c1ccc(C(=O)Nc2nc3ccccc3n2Cc2ccc(Cl)cc2)cc1,IC50,[29],> 20 µM (inactive)
same,IC50,[30],> 20 µM (inactive)
same,IC50,[31],> 20 µM (inactive)
same,IC50,[32],> 20 µM (inactive)
O=C(O)Cc1ccccc1Nc1c(Cl)cccc1Cl [DICLOFENAC],IC50,[33],0.943 µM (active)
COc1ccc2[nH]c(=O)c3c(c2c1)OC(C)(C)C=C3 [HAPLAMINE],AC50,[34],14.8 µM (active)
same,AC50,[35],7.94 µM (inconclusive)
same,AC50,[36],5.32 µM (active)
same,AC50,[37],25.1 µM (inconclusive)
same,AC50,[38],5.53 µM (active)
same,AC50,[39],10.4 µM (active)
same,AC50,[40],3.86 µM (active)

# Reference: ChEMBL document CHEMBL1201862, “PubChem BioAssay data set” (2004)
